Read-outs that look alike come from different tables or passages of the source.
Assays:
human Gal-1 (hGal-1) = human Gal-1 (hGal-1) (Homo sapiens, UniProt P09382); assay: Competitive binding assay: biotinylated hGal-1 binding to microplate-adsorbed asialofetuin (ASF), spectrophotometric; conditions: hGal-1 binding to asialofetuin; Table 15; R and S epimers of selected Examples also listed; read-out: IC50 (Galectin-1 inhibition)
Experimental: (§1) Biological Assay Evaluation of Compound Inhibitory Activity (IC50)
The inhibitory activity of compounds is determined in competitive binding assays. This spectrophotometric assay measures the binding of biotinylated human Gal-3 (hGal-3) or human Gal-1 (hGal-1), respectively, to a microplate-adsorbed glycoprotein, asialofetuin (ASF) (Proc Natl Acad Sci USA. 2013 Mar. 26; 110(13):5052-7.).
Briefly, compounds are serially diluted in DMSO (working dilutions). ASF-coated 384well plates are supplemented with 22.8 μL/well of biotinylated hGal-3 or hGal-1 in assay buffer (i.e. 300-1000 ng/mL biotinylated hGal-3 or hGal-1) to which 1.2 μL of compound working dilutions are added and mixed.
(§2) Plates are incubated for 3 hours at 4° C., then washed with cold assay buffer (3×50 uL), incubated for 1 hour with 25 μL/well of a streptavidin-peroxidase solution (diluted in assay buffer to 80 ng/mL) at 4° C., followed by further washing steps with assay buffer (3×50 uL). Finally, 25 μL/well of ABTS substrate is added.
(§3) The calculated IC50 values may fluctuate depending on the daily assay performance. Fluctuations of this kind are known to those skilled in the art. IC50 values from several measurements are given as mean values.

[1] = biological target: biotinylated human Gal-3 (hGal-3) (Homo sapiens, UniProt P17931); assay: Competitive binding assay: biotinylated hGal-3 binding to microplate-adsorbed asialofetuin (ASF), spectrophotometric
Experimental: If not explicitly mentioned otherwise, the inhibition data refer to the binding of biotinylated human Gal-3 (hGal-3).
as §1
The inhibitory activity of compounds is determined in competitive binding assays.
Briefly, compounds are serially diluted in DMSO (working dilutions).
as §2, §3

[2] = Table 13, hGal-3, read-out: IC50 (Gal-3 inhibition)
[3] = Gal-3 inhibition, Table 5, read-out: IC50
[4] = Gal-3 inhibition, Table 7, read-out: IC50
[5] = Table 11, hGal-3, read-out: IC50 (Gal-3 inhibition)

Sequence of human Gal-1 (hGal-1) (P09382 whole entry): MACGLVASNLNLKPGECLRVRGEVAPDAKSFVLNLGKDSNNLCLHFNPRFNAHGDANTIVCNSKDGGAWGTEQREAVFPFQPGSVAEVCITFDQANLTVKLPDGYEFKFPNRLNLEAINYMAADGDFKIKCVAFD
Sequence of biotinylated human Gal-3 (hGal-3) (P17931 whole entry): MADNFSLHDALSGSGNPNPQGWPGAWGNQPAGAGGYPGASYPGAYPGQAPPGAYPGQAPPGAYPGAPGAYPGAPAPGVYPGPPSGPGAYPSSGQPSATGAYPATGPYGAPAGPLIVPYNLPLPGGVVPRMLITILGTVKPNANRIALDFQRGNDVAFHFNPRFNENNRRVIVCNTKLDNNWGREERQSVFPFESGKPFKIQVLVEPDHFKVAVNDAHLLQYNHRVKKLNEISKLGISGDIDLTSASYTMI

Compound	IC50 (human Gal-1 (hGal-1))	other results
1-(4,4-Difluoropiperidin-1-yl)-2-(4-hydroxy-2,2-dimethyltetrahydro-2H-pyran-4-yl)-2-(((2S,3R,4S,5R,6R)-5-hydroxy-6-(hydroxymethyl)-3-methoxy-4-(4-(3,4,5-trifluorophenyl)-1H-1,2,3-triazol-1-yl)tetrahydro-2H-pyran-2-yl)thio)ethan-1-one [Example 2.43.226.I.]	460 nM	IC50 [1, 2]: 250 nM
2-(1,1-Difluoro-6-hydroxyspiro[2.5]octan-6-yl)-1-(4,4-difluoropiperidin-1-yl)-2-(((2S,3R,4S,5R,6R)-5-hydroxy-6-(hydroxymethyl)-3-methoxy-4-(4-(3,4,5-trifluorophenyl)-1H-1,2,3-triazol-1-yl)tetrahydro-2H-pyran-2-yl)thio)ethan-1-one [Example 2.73.226.I.]	150 nM	IC50 [1, 2]: 100 nM
2-(4,4-Difluoro-1-hydroxycyclohexyl)-2-(((2S,3R,4S,5R,6R)-3,5-dihydroxy-6-(hydroxymethyl)-4-(4-(3,4,5-trifluorophenyl)-1H-1,2,3-triazol-1-yl)tetrahydro-2H-pyran-2-yl)thio)-1-(piperidin-1-yl)ethan-1-one [Example 2.44.208.]	210 nM	IC50 [1, 3]: 70 nM
2-(4,4-Difluoro-1-hydroxycyclohexyl)-2-(((2S,3R,4S,5R,6R)-3,5-dihydroxy-6-(hydroxymethyl)-4-(4-(3,4,5-trifluorophenyl)-1H-1,2,3-triazol-1-yl)tetrahydro-2H-pyran-2-yl)thio)-N-(2-fluoro-2-methylpropyl)-N-methylacetamide [Example 2.44.222.]	350 nM	IC50 [1, 3]: 130 nM
2-(4,4-Difluoro-1-hydroxycyclohexyl)-2-(((2S,3R,4S,5R,6R)-3,5-dihydroxy-6-(hydroxymethyl)-4-(4-(3,4,5-trifluorophenyl)-1H-1,2,3-triazol-1-yl)tetrahydro-2H-pyran-2-yl)thio)-N-ethyl-N-methylacetamide [Example 2.44.203.]	140 nM	IC50 [1, 3]: 60 nM
2-(((2S,3R,4S,5R,6R)-3,5-Dihydroxy-6-(hydroxymethyl)-4-(4-(3,4,5-trifluorophenyl)-1H-1,2,3-triazol-1-yl)tetrahydro-2H-pyran-2-yl)thio)-2-(4-hydroxy-1-methylpiperidin-4-yl)-N-isobutyl-N-methylacetamide [Example 2.40.200.]	190 nM	IC50 ([1]; Gal-3 inhibition, Table 4, read-out: IC50): 80 nM
CC1CN(C(=O)[C@@H](S[C@@H]2O[C@H](CO)[C@H](O)[C@H](n3cc(-c4cc(F)c(F)c(F)c4)nn3)[C@H]2O)C(C)(C)O)C1 [Example 2.31.205S., (S)-2-(((2S,3R,4S,5R,6R)-3,5-dihydroxy-6-(hydroxymethyl)-4-(4-(3,4,5-trifluorophenyl)-1H-1,2,3-triazol-1-yl)tetrahydro-2H-pyran-2-yl)thio)-3-hydroxy-3-methyl-1-(3-methylazetidin-1-yl)butan-1-one]	820 nM	–
CC(C)(O)[C@@H](S[C@@H]1O[C@H](CO)[C@H](O)[C@H](n2cc(-c3cc(F)c(F)c(F)c3)nn2)[C@H]1O)C(=O)N1CCCC1 [Example 2.31.211R, (R)-2-(((2S,3R,4S,5R,6R)-3,5-Dihydroxy-6-(hydroxymethyl)-4-(4-(3,4,5-trifluorophenyl)-1H-1,2,3-triazol-1-yl)tetrahydro-2H-pyran-2-yl)thio)-3-hydroxy-3-methyl-1-(pyrrolidin-1-yl)butan-1-one]	2150 nM	–
CC(C)(O)[C@H](S[C@@H]1O[C@H](CO)[C@H](O)[C@H](n2cc(-c3cc(F)c(F)c(F)c3)nn2)[C@H]1O)C(=O)N1CCCC1 [Example 2.31.211S., (S)-2-(((2S,3R,4S,5R,6R)-3,5-Dihydroxy-6-(hydroxymethyl)-4-(4-(3,4,5-trifluorophenyl)-1H-1,2,3-triazol-1-yl)tetrahydro-2H-pyran-2-yl)thio)-3-hydroxy-3-methyl-1-(pyrrolidin-1-yl)butan-1-one]	530 nM	–
CO[C@@H]1[C@@H](n2cc(-c3cc(F)c(F)c(F)c3)nn2)[C@@H](O)[C@@H](CO)O[C@H]1SC(C(=O)NC1CCC(C)(C)CC1)C1(O)CCC(F)(F)CC1 (stereo partly drawn) [Example 2.44.255.I., 2-(4,4-Difluoro-1-hydroxycyclohexyl)-N-(4,4-dimethylcyclohexyl)-2-(((2S,3R,4S,5R,6R)-5-hydroxy-6-(hydroxymethyl)-3-methoxy-4-(4-(3,4,5-trifluorophenyl)-1H-1,2,3-triazol-1-yl)tetrahydro-2H-pyran-2-yl)thio)acetamide]	830 nM	–
CCC(O)C(S[C@@H]1O[C@H](CO)[C@H](O)[C@H](n2cc(-c3cc(F)c(F)c(F)c3)nn2)[C@H]1O)C(=O)N(C)CC1CC1 (stereo partly drawn) [Example 2.60.218., N-(Cyclopropylmethyl)-2-(((2S,3R,4S,5R,6R)-3,5-dihydroxy-6-(hydroxymethyl)-4-(4-(3,4,5-trifluorophenyl)-1H-1,2,3-triazol-1-yl)tetrahydro-2H-pyran-2-yl)thio)-3-hydroxy-N-methylpentanamide]	–	IC50 [1, 4]: 120 nM
CCC(O)C(S[C@@H]1O[C@H](CO)[C@H](O)[C@H](n2cc(-c3cc(F)c(F)c(F)c3)nn2)[C@H]1O)C(=O)N(C)CC1CC1 (some centres unmarked) [Example 2.60.218]	200 nM	–
CCN(C)C(=O)C(S[C@@H]1O[C@H](CO)[C@H](O)[C@H](n2cc(-c3cc(F)c(F)c(F)c3)nn2)[C@H]1O)C(O)Cc1ccccc1 (stereo partly drawn) [Example 2.64.203., 2-(((2S,3R,4S,5R,6R)-3,5-Dihydroxy-6-(hydroxymethyl)-4-(4-(3,4,5-trifluorophenyl)-1H-1,2,3-triazol-1-yl)tetrahydro-2H-pyran-2-yl)thio)-N-ethyl-3-hydroxy-N-methyl-4-phenylbutanamide]	–	IC50 [1, 4]: 220 nM
CCN(C)C(=O)C(S[C@@H]1O[C@H](CO)[C@H](O)[C@H](n2cc(-c3cc(F)c(F)c(F)c3)nn2)[C@H]1O)C(O)Cc1ccccc1 (some centres unmarked) [Example 2.64.203]	1460 nM	–
Cc1cc(-c2cn([C@H]3[C@@H](O)[C@@H](CO)O[C@@H](S[C@@H](C(=O)N(C)C4CC4)C4(O)CCC(F)(F)CC4)[C@@H]3O)nn2)cnc1F [Example 21.44.221R, (R)-N-Cyclopropyl-2-(4,4-difluoro-1-hydroxycyclohexyl)-2-(((2S,3R,4S,5R,6R)-4-(4-(6-fluoro-5-methylpyridin-3-yl)-1H-1,2,3-triazol-1-yl)-3,5-dihydroxy-6-(hydroxymethyl)tetrahydro-2H-pyran-2-yl)thio)-N-methylacetamide]	–	IC50 [1, 5]: 230 nM
Cc1cc(-c2cn([C@H]3[C@@H](O)[C@@H](CO)O[C@@H](S[C@@H](C(=O)N(C)C4CC4)C4(O)CCC(F)(F)CC4)[C@@H]3O)nn2)cnc1F [Example 21.44.221R., (R)-N-Cyclopropyl-2-(4,4-difluoro-1-hydroxycyclohexyl)-2-(((2S,3R,4S,5R,6R)-4-(4-(6-fluoro-5-methylpyridin-3-yl)-1H-1,2,3-triazol-1-yl)-3,5-dihydroxy-6-(hydroxymethyl)tetrahydro-2H-pyran-2-yl)thio)-N-methylacetamide]	220 nM	–
Cc1cc(-c2cn([C@H]3[C@@H](O)[C@@H](CO)O[C@@H](S[C@H](C(=O)N(C)C4CC4)C4(O)CCC(F)(F)CC4)[C@@H]3O)nn2)cnc1F [Example 21.44.221S, (S)-N-Cyclopropyl-2-(4,4-difluoro-1-hydroxycyclohexyl)-2-(((2S,3R,4S,5R,6R)-4-(4-(6-fluoro-5-methylpyridin-3-yl)-1H-1,2,3-triazol-1-yl)-3,5-dihydroxy-6-(hydroxymethyl)tetrahydro-2H-pyran-2-yl)thio)-N-methylacetamide]	–	IC50 [1, 5]: 50 nM
Cc1cc(-c2cn([C@H]3[C@@H](O)[C@@H](CO)O[C@@H](S[C@H](C(=O)N(C)C4CC4)C4(O)CCC(F)(F)CC4)[C@@H]3O)nn2)cnc1F [Example 21.44.221S., (S)-N-Cyclopropyl-2-(4,4-difluoro-1-hydroxycyclohexyl)-2-(((2S,3R,4S,5R,6R)-4-(4-(6-fluoro-5-methylpyridin-3-yl)-1H-1,2,3-triazol-1-yl)-3,5-dihydroxy-6-(hydroxymethyl)tetrahydro-2H-pyran-2-yl)thio)-N-methylacetamide]	70 nM	–
(R)-2-(4,4-Difluoro-1-hydroxycyclohexyl)-2-(((2S,3R,4S,5R,6R)-3,5-dihydroxy-6-(hydroxymethyl)-4-(4-(3,4,5-trifluorophenyl)-1H-1,2,3-triazol-1-yl)tetrahydro-2H-pyran-2-yl)thio)-1-(piperidin-1-yl)ethan-1-one [Example 2.44.208R.]	–	IC50 [1, 3]: 3360 nM
(R)-2-(((2S,3R,4S,5R,6R)-3,5-dihydroxy-6-(hydroxymethyl)-4-(4-(3,4,5-trifluorophenyl)-1H-1,2,3-triazol-1-yl)tetrahydro-2H-pyran-2-yl)thio)-3-hydroxy-3-methyl-1-(3-methylazetidin-1-yl)butan-1-one [Example 2.31.205R.]	20000 nM	–

Reference: US12410208B2, “(2-acetamidyl)thio-beta-D-galactopyranoside derivatives” (Idorsia Pharmaceuticals Ltd, priority 2020, dated 2025)
